US10131652B2, “Pyrimidinyloxy benzene derivatives as herbicides” (E. I. DU PONT DE NEMOURS AND COMPANY, priority 2014, dated 2018)

Legend:
Assay in all cases: Test F pre-/postemergence plant response
Assay type in all cases: in vivo
Conditions in all cases: scale 0 to 100
[1] = system: arrowleaf sida (Sida rhombifolia)
Summary of the method: (§1)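 Two application timings were run side by side: soil surface treatment of freshly planted seed in silt loam, and foliar treatment of seedlings 2 to 18 cm high. Plants stayed in the greenhouse 14 to 21 days before visual 0–100 injury scoring against controls.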

[2] = system: barnyardgrass (Echinochloa crus-galli)
Summary of the method: as §1

[3] = system: dayflower (Virginia (VA) dayflower, Commelina virginica)
Summary of the method: as §1

[4] = system: field bindweed (Convolvulus arvensis)
Summary of the method: as §1

[5] = system: giant foxtail (Setaria faberii)
Summary of the method: as §1

[6] = system: goosegrass (Eleusine indica)
Summary of the method: as §1

[7] = system: hairy beggarticks (Bidens pilosa)
Summary of the method: as §1

[8] = system: johnsongrass (Sorghum halepense)
Summary of the method: as §1

[9] = system: large (Lg) crabgrass (Digitaria sanguinalis)
Summary of the method: as §1

[10] = system: sandbur (southern sandbur, Cenchrus echinatus)
Summary of the method: as §1

[11] = system: soybean (Glycine max)
Summary of the method: as §1

[12] = system: surinam grass (Brachiaria decumbens)
Summary of the method: as §1

[13] = system: velvetleaf (Abutilon theophrasti)
Summary of the method: as §1

[14] = system: waterhemp (common waterhemp, Amaranthus rudis)
Summary of the method: as §1

[15] = system: wild poinsettia (Euphorbia heterophylla)
Summary of the method: as §1

[16] = system: yellow nutsedge (Cyperus esculentus)
Summary of the method: as §1

Fc1ccc(Oc2ncc(Cl)cn2)c(-c2cc(C(F)F)on2)c1Cl [Compound 96]
5: Plant response rating, Field Bindweed ([4]; 16 g ai/ha Postemergence)
70: Plant response rating, Arrowleaf Sida ([1]; 16 g ai/ha Postemergence) | Plant response rating, Arrowleaf Sida ([1]; 31 g ai/ha Preemergence) | Plant response rating, Dayflower, VA ([3]; 62 g ai/ha Postemergence) | Plant response rating, Dayflower, VA ([3]; 125 g ai/ha Postemergence)
20: Plant response rating, Barnyardgrass ([2]; 62 g ai/ha Postemergence) | Plant response rating, Barnyardgrass ([2]; 125 g ai/ha Postemergence) | Plant response rating, Dayflower, VA ([3]; 16 g ai/ha Postemergence) | Plant response rating, Dayflower, VA ([3]; 125 g ai/ha Preemergence) | Plant response rating, Field Bindweed ([4]; 62 g ai/ha Postemergence) | Plant response rating, Foxtail, Giant ([5]; 125 g ai/ha Preemergence) | Plant response rating, Beggarticks ([7]; 125 g ai/ha Preemergence) | Plant response rating, Johnsongrass ([8]; 16 g ai/ha Preemergence)
30: Plant response rating, Beggarticks ([7]; 31 g ai/ha Postemergence) | Plant response rating, Crabgrass, Large ([9]; 31 g ai/ha Preemergence) | Plant response rating, Sandbur ([10]; 125 g ai/ha Preemergence) | Plant response rating, Poinsettia, Wild ([15]; 31 g ai/ha Postemergence)
75: Plant response rating, Waterhemp ([14]; 16 g ai/ha Postemergence)
100: Plant response rating, Waterhemp ([14]; 31 g ai/ha Preemergence) | Plant response rating, Waterhemp ([14]; 62 g ai/ha Postemergence) | Plant response rating, Waterhemp ([14]; 125 g ai/ha Preemergence) | Plant response rating, Waterhemp ([14]; Preemergence)
90: Plant response rating, Arrowleaf Sida ([1]; 62 g ai/ha Postemergence) | Plant response rating, Arrowleaf Sida ([1]; 125 g ai/ha Preemergence) | Plant response rating, Waterhemp ([14]; 31 g ai/ha Postemergence)
98: Plant response rating, Johnsongrass ([8]; 125 g ai/ha Preemergence)
0: Plant response rating, Barnyardgrass ([2]; 16 g ai/ha Postemergence) | Plant response rating, Barnyardgrass ([2]; 16 g ai/ha Preemergence) | Plant response rating, Barnyardgrass ([2]; 31 g ai/ha Preemergence) | Plant response rating, Barnyardgrass ([2]; 62 g ai/ha Preemergence) | Plant response rating, Barnyardgrass ([2]; 125 g ai/ha Preemergence) | Plant response rating, Dayflower, VA ([3]; 16 g ai/ha Preemergence) | Plant response rating, Dayflower, VA ([3]; 31 g ai/ha Preemergence) | Plant response rating, Dayflower, VA ([3]; 62 g ai/ha Preemergence) | Plant response rating, Field Bindweed ([4]; 16 g ai/ha Preemergence) | Plant response rating, Field Bindweed ([4]; 31 g ai/ha Preemergence) | Plant response rating, Foxtail, Giant ([5]; 16 g ai/ha Preemergence) | Plant response rating, Foxtail, Giant ([5]; 31 g ai/ha Preemergence) | Plant response rating, Foxtail, Giant ([5]; 62 g ai/ha Preemergence) | Plant response rating, Beggarticks ([7]; 16 g ai/ha Postemergence) | Plant response rating, Beggarticks ([7]; 16 g ai/ha Preemergence) | Plant response rating, Beggarticks ([7]; 31 g ai/ha Preemergence) | Plant response rating, Beggarticks ([7]; 62 g ai/ha Preemergence) | Plant response rating, Crabgrass, Large ([9]; 16 g ai/ha Preemergence) | Plant response rating, Sandbur ([10]; 16 g ai/ha Postemergence) | Plant response rating, Sandbur ([10]; 16 g ai/ha Preemergence) | Plant response rating, Sandbur ([10]; 31 g ai/ha Postemergence) | Plant response rating, Sandbur ([10]; 62 g ai/ha Postemergence) | Plant response rating, Sandbur ([10]; 125 g ai/ha Postemergence) | Plant response rating, Soybean ([11]; 16 g ai/ha Preemergence) | Plant response rating, Soybean ([11]; 31 g ai/ha Preemergence) | Plant response rating, Soybean ([11]; 125 g ai/ha Preemergence) | Plant response rating, Soybean ([11]; Preemergence) | Plant response rating, Surinam Grass ([12]; 16 g ai/ha Preemergence) | Plant response rating, Surinam Grass ([12]; 31 g ai/ha Preemergence) | Plant response rating, Surinam Grass ([12]; 125 g ai/ha Preemergence) | Plant response rating, Surinam Grass ([12]; Preemergence) | Plant response rating, Velvetleaf ([13]; 16 g ai/ha Preemergence) | Plant response rating, Poinsettia, Wild ([15]; 16 g ai/ha Postemergence) | Plant response rating, Poinsettia, Wild ([15]; 16 g ai/ha Preemergence) | Plant response rating, Poinsettia, Wild ([15]; 31 g ai/ha Preemergence) | Plant response rating, Poinsettia, Wild ([15]; Preemergence) | Plant response rating, Nutsedge, Yellow ([16]; 16 g ai/ha Preemergence) | Plant response rating, Nutsedge, Yellow ([16]; 31 g ai/ha Preemergence) | Plant response rating, Nutsedge, Yellow ([16]; 125 g ai/ha Preemergence) | Plant response rating, Nutsedge, Yellow ([16]; Preemergence)
25: Plant response rating, Poinsettia, Wild ([15]; 125 g ai/ha Preemergence)
60: Plant response rating, Field Bindweed ([4]; 62 g ai/ha Preemergence) | Plant response rating, Goosegrass ([6]; 125 g ai/ha Preemergence) | Plant response rating, Johnsongrass ([8]; 31 g ai/ha Preemergence) | Plant response rating, Velvetleaf ([13]; 31 g ai/ha Preemergence) | Plant response rating, Poinsettia, Wild ([15]; 62 g ai/ha Postemergence)
95: Plant response rating, Arrowleaf Sida ([1]; 125 g ai/ha Postemergence) | Plant response rating, Crabgrass, Large ([9]; 125 g ai/ha Preemergence) | Plant response rating, Waterhemp ([14]; 125 g ai/ha Postemergence)
10: Plant response rating, Barnyardgrass ([2]; 31 g ai/ha Postemergence) | Plant response rating, Field Bindweed ([4]; 31 g ai/ha Postemergence) | Plant response rating, Sandbur ([10]; 31 g ai/ha Preemergence)
50: Plant response rating, Arrowleaf Sida ([1]; 16 g ai/ha Preemergence) | Plant response rating, Field Bindweed ([4]; 125 g ai/ha Postemergence) | Plant response rating, Goosegrass ([6]; 16 g ai/ha Preemergence) | Plant response rating, Johnsongrass ([8]; Preemergence) | Plant response rating, Poinsettia, Wild ([15]; 125 g ai/ha Postemergence)
80: Plant response rating, Arrowleaf Sida ([1]; 31 g ai/ha Postemergence) | Plant response rating, Arrowleaf Sida ([1]; 62 g ai/ha Preemergence) | Plant response rating, Soybean ([11]; 125 g ai/ha Postemergence) | Plant response rating, Velvetleaf ([13]; 125 g ai/ha Preemergence) | Plant response rating, Velvetleaf ([13]; Preemergence)
65: Plant response rating, Crabgrass, Large ([9]; 62 g ai/ha Preemergence)
40: Plant response rating, Dayflower, VA ([3]; 31 g ai/ha Postemergence) | Plant response rating, Field Bindweed ([4]; 125 g ai/ha Preemergence) | Plant response rating, Goosegrass ([6]; 31 g ai/ha Preemergence) | Plant response rating, Goosegrass ([6]; Preemergence) | Plant response rating, Beggarticks ([7]; 62 g ai/ha Postemergence) | Plant response rating, Beggarticks ([7]; 125 g ai/ha Postemergence) | Plant response rating, Sandbur ([10]; Preemergence) | Plant response rating, Soybean ([11]; 16 g ai/ha Postemergence) | Plant response rating, Soybean ([11]; 62 g ai/ha Postemergence) | Plant response rating, Waterhemp ([14]; 16 g ai/ha Preemergence)
